# In patent EP2818472A1, “Imidazo[4,5-c]pyridine and pyrrolo[3,2-c]pyridine compounds as G-protein-coupled receptor kinase 5 (GRK5) modulators” (Max-Planck-Gesellschaft zur Förderung der Wissenschaften …, priority 2013, dated 2014):
# System: beta-TC6 cells
# Assay: Insulin HTRF assay (relative activity Ar) in beta-TC6 cells
# Assay type: cell-based, mouse
# Conditions: Mus musculus, Beta-TC6, 4 h, insulin HTRF, supernatant of beta-TC6 cells, incubation with test compound at 37°C for 2, 3, 4h; read-out: Ar (relative activity)
# Method in brief: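 beta-TC6 cells (15k/well, seeded 24 or 48 h) washed, then exposed to compound in induction buffer (0.5% DMSO final) for 2, 3 or 4 h at 37°C.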
row,Structure (SMILES),Emax
1,"Cn1c(Nc2cccc(C(F)(F)F)c2)nc2cnc(-c3ccc(N)nc3)cc21 [Compound 590, 6-(6-amino-3-pyridyl)-1-methyl-N-[3-(trifluoromethyl)phenyl]imidazo[4,5-c]pyridin-2-amine]",50 to 100%
2,"COc1ccc(OC)c(CCNc2nc3cnc(-c4ccncc4)cc3n2C)c1 [Compound 591, N-[2-(2,5-dimethoxyphenyl)ethyl]-1-methyl-6-(4-pyridyl)imidazo[4,5-c]pyridin-2-amine]",30 to 50%
3,"COc1ccc(OC)c(CCNc2nc3cnc(-c4ccsc4)cc3n2C)c1 [Compound 592, N-[2-(2,5-dimethoxyphenyl)ethyl]-1-methyl-6-(3-thienyl)imidazo[4,5-c]pyridin-2-amine]",50 to 100%
4,"COc1ccc(OC)c(CCNc2nc3cnc(-c4cc(OC)c(OC)c(OC)c4)cc3n2C)c1 [Compound 593, N-[2-(2,5-dimethoxyphenyl)ethyl]-1-methyl-6-(3,4,5-trimethoxyphenyl)imidazo[4,5-c]pyridin-2-amine]",30 to 50%
5,"COc1ccc(OC)c(CCNc2nc3cnc(-c4ccc(O)c(OC)c4)cc3n2C)c1 [Compound 594, 4-[2-[2-(2,5-dimethoxyphenyl)ethylamino]-1-methyl-imidazo[4,5-c]pyridin-6-yl]-2-methoxy-phenol]",30 to 50%
6,"COc1ccc(OC)c(CCNc2nc3cnc(-c4cccs4)cc3n2C)c1 [Compound 595, N-[2-(2,5-dimethoxyphenyl)ethyl]-1-methyl-6-(2-thienyl)imidazo[4,5-c]pyridin-2-amine]",30 to 50%
7,"Cn1c(NCC2CC2)nc2cnc(-c3ccsc3)cc21 [Compound 596, N-(cyclopropylmethyl)-1-methyl-6-(3-thienyl)imidazo[4,5-c]pyridin-2-amine]",50 to 100%
8,"Cn1c(NCC2CC2)nc2cnc(-c3ccc(N4CCNCC4)cc3)cc21 [Compound 597, N-(cyclopropylmethyl)-1-methyl-6-(4-piperazin-1-ylphenyl)imidazo[4,5-c]pyridin-2-amine]",50 to 100%
9,"Cn1c(NCC2CC2)nc2cnc(Nc3ccc4c(c3)OCO4)cc21 [Compound 598, N6-(1,3-benzodioxol-5-yl)-N2-(cyclopropylmethyl)-1-methyl-imidazo[4,5-c]pyridine-2,6-diamine]",30 to 50%
10,"COc1ccc(CNc2nc3cnc(Nc4cc(OC)c(OC)c(OC)c4)cc3n2C)cc1OC [Compound 599, N2-[(3,4-dimethoxyphenyl)methyl]-1-methyl-N6-(3,4,5-trimethoxyphenyl)imidazo[4,5-c]pyridine-2,6-diamine]",50 to 100%
11,"COc1ccc(CNc2nc3cnc(Nc4ccc(NC(C)=O)cc4)cc3n2C)cc1OC [Compound 600, N-[4-[[2-[(3,4-dimethoxyphenyl)methylamino]-1-methyl-imidazo[4,5-c]pyridin-6-yl]amino]phenyl]acetamide]",50 to 100%
12,"COc1ccc(CNc2nc3cnc(Nc4ccc(C(N)=O)cc4)cc3n2C)cc1OC [Compound 601, 4-[[2-[(3,4-dimethoxyphenyl)methylamino]-1-methyl-imidazo[4,5-c]pyridin-6-yl]amino]benzamide]",50 to 100%
13,"COc1ccc(Nc2cc3c(cn2)nc(NCc2ccc(OC)c(OC)c2)n3C)c(OC)c1 [Compound 602, N6-(2,4-dimethoxyphenyl)-N2-[(3,4-dimethoxyphenyl)methyl]-1-methyl-imidazo[4,5-c]pyridine-2,6-diamine]",30 to 50%
14,"COc1ccc(CNc2nc3cnc(Nc4ccc(OC)c(OC)c4)cc3n2C)cc1OC [Compound 603, N6-(3,4-dimethoxyphenyl)-N2-[(3,4-dimethoxyphenyl)methyl]-1-methyl-imidazo[4,5-c]pyridine-2,6-diamine]",50 to 100%
15,"COc1ccc(CNc2nc3cnc(Nc4ccccc4)cc3n2C)cc1OC [Compound 604, N2-[(3,4-dimethoxyphenyl)methyl]-1-methyl-N6-phenyl-imidazo[4,5-c]pyridine-2,6-diamine]",30 to 50%
16,"COc1ccc(CNc2nc3cnc(Nc4ccc(N5CCN(C)CC5)cc4)cc3n2C)cc1OC [Compound 605, N2-[(3,4-dimethoxyphenyl)methyl]-1-methyl-N6-[4-(4-methylpiperazin-1-yl)phenyl]imidazo[4,5-c]pyridine-2,6-diamine]",50 to 100%
17,"COc1ccc(Nc2cc3c(cn2)nc(NCc2ccc(OC)c(OC)c2)n3C)cc1 [Compound 606, N2-[(3,4-dimethoxyphenyl)methyl]-N6-(4-methoxyphenyl)-1-methyl-imidazo[4,5-c]pyridine-2,6-diamine]",50 to 100%
18,"COc1ccc(CNc2nc3cnc(Nc4ccc(F)cc4)cc3n2C)cc1OC [Compound 607, N2-[(3,4-dimethoxyphenyl)methyl]-N6-(4-fluorophenyl)-1-methyl-imidazo[4,5-c]pyridine-2,6-diamine]",50 to 100%
19,"COc1ccc(CNc2nc3cnc(Nc4cccc(S(C)(=O)=O)c4)cc3n2C)cc1OC [Compound 608, N2-[(3,4-dimethoxyphenyl)methyl]-1-methyl-N6-(3-methylsulfonylphenyl)imidazo[4,5-c]pyridine-2,6-diamine]",30 to 50%
20,"CNc1nc2cnc(Nc3cc(OC)c(OC)c(OC)c3)cc2n1C [Compound 609, N2,1-dimethyl-N6-(3,4,5-trimethoxyphenyl)imidazo[4,5-c]pyridine-2,6-diamine]",50 to 100%
21,"CNc1nc2cnc(Nc3ccc(OC)cc3OC)cc2n1C [Compound 610, N6-(2,4-dimethoxyphenyl)-N2,1-dimethyl-imidazo[4,5-c]pyridine-2,6-diamine]",50 to 100%

row,Structure (SMILES),Emax
1,"CNc1nc2cnc(Nc3ccc(F)cc3)cc2n1C [Compound 611, N6-(4-fluorophenyl)-N2,1-dimethyl-imidazo[4,5-c]pyridine-2,6-diamine]",30 to 50%
2,"CNc1nc2cnc(-c3ccc(O)c(OC)c3)cc2n1C [Compound 612, 2-methoxy-4-[1-methyl-2-(methylamino)imidazo[4,5-c]pyridin-6-yl]phenol]",50 to 100%
3,"COc1ccccc1Nc1nc2cnc(-c3cccnc3)cc2n1C [Compound 613, N-(2-methoxyphenyl)-1-methyl-6-(3-pyridyl)imidazo[4,5-c]pyridin-2-amine]",50 to 100%
4,"Cn1c(NCc2ccccc2)nc2cnc(-c3ccc(N4CCOCC4)cc3)cc21 [Compound 614, N-benzyl-1-methyl-6-(4-morpholinophenyl)imidazo[4,5-c]pyridin-2-amine]",50 to 100%
5,"CN(C)c1ccc(-c2cc3c(cn2)nc(NCc2ccccc2)n3C)cc1 [Compound 615, N-benzyl-6-(4-dimethylaminophenyl)-1-methyl-imidazo[4,5-c]pyridin-2-amine]",> 100%
6,"COc1cc(Nc2cc3c(cn2)nc(NCc2ccccc2)n3C)cc(OC)c1OC [Compound 616, N2-benzyl-1-methyl-N6-(3,4,5-trimethoxyphenyl)imidazo[4,5-c]pyridine-2,6-diamine]",50 to 100%
7,"CC(=O)Nc1ccc(Nc2cc3c(cn2)nc(NCc2ccccc2)n3C)cc1 [Compound 617, N-[4-[[2-(benzylamino)-1-methyl-imidazo[4,5-c]pyridin-6-yl]amino]phenyl]acetamide]",50 to 100%
8,"COc1ccc(Nc2cc3c(cn2)nc(NCc2ccccc2)n3C)cn1 [Compound 618, N2-benzyl-N6-(6-methoxy-3-pyridyl)-1-methyl-imidazo[4,5-c]pyridine-2,6-diamine]",50 to 100%
9,"CN(C)c1cccc(Nc2cc3c(cn2)nc(NCc2ccccc2)n3C)c1 [Compound 619, N2-benzyl-N6-[3-(dimethylamino)phenyl]-1-methyl-imidazo[4,5-c]pyridine-2,6-diamine]",50 to 100%
10,"CN(C)c1cccc(-c2cc3c(cn2)nc(NCc2ccccc2)n3C)c1 [Compound 620, N-benzyl-6-[3-(dimethylamino)phenyl]-1-methyl-imidazo[4,5-c]pyridin-2-amine]",> 100%
11,"COc1ccc(Nc2cc3c(cn2)nc(NCc2ccccc2)n3C)cc1 [Compound 621, N2-benzyl-N6-(4-methoxyphenyl)-1-methyl-imidazo[4,5-c]pyridine-2,6-diamine]",50 to 100%
12,"Cn1c(NCc2ccccc2)nc2cnc(Nc3cccc(O)c3)cc21 [Compound 622, 3-[[2-(benzylamino)-1-methyl-imidazo[4,5-c]pyridin-6-yl]amino]phenol]",50 to 100%
13,"Cn1c(NCc2ccccc2)nc2cnc(-c3cncnc3)cc21 [Compound 623, N-benzyl-1-methyl-6-pyrimidin-5-yl-imidazo[4,5-c]pyridin-2-amine]",30 to 50%
14,"Cn1cc(-c2cc3c(cn2)nc(NCc2ccccc2)n3C)cn1 [Compound 624, N-benzyl-1-methyl-6-(1-methylpyrazol-4-yl)imidazo[4,5-c]pyridin-2-amine]",30 to 50%
15,"Cn1c(NCc2ccccc2)nc2cnc(-c3ccc(N)nc3)cc21 [Compound 625, 6-(6-amino-3-pyridyl)-N-benzyl-1-methyl-imidazo[4,5-c]pyridin-2-amine]",> 100%
16,"CN(C)C(=O)c1ccc(Nc2cc3c(cn2)nc(NCc2ccccc2)n3C)cc1 [Compound 626, 4-[[2-(benzylamino)-1-methyl-imidazo[4,5-c]pyridin-6-yl]amino]-N,N-dimethyl-benzamide]",30 to 50%
17,"CC(=O)Nc1cccc(Nc2cc3c(cn2)nc(NCc2ccccc2)n3C)c1 [Compound 627, N-[3-[[2-(benzylamino)-1-methyl-imidazo[4,5-c]pyridin-6-yl]amino]phenyl]acetamide]",50 to 100%
18,"CC(=O)c1cccc(Nc2cc3c(cn2)nc(NCc2ccccc2)n3C)c1 [Compound 628, 1-[3-[[2-(benzylamino)-1-methyl-imidazo[4,5-c]pyridin-6-yl]amino]phenyl]ethanone]",30 to 50%
19,"Cn1c(NCc2ccccc2)nc2cnc(Nc3cccc(F)c3)cc21 [Compound 629, N2-benzyl-N6-(3-fluorophenyl)-1-methyl-imidazo[4,5-c]pyridine-2,6-diamine]",30 to 50%
20,"Cn1c(Nc2ccccc2)nc2cnc(-c3ccc(N4CCOCC4)cc3)cc21 [Compound 630, 1-methyl-6-(4-morpholinophenyl)-N-phenyl-imidazo[4,5-c]pyridin-2-amine]",50 to 100%
